Experimental data as given in PMC8048308, “Lysophosphatidic acid (LPA)-antibody (504B3) engagement detected by interferometry identifies off-target binding” (Lipids in Health and Disease, 2021).
“And” between values parts separate entries of the source, which are not always exact repeats. Equal values may be shown once.

What was measured:
LPA1 = molecular target: LPA1; parameters: method as in PMID 30463988, PMID 32513900; details: CIR; cited from earlier work
anti-LPA antibody, 504B3 = experiment: free solution assay (FSA) measured in a compensated interferometric reader (CIR), equilibrium binding of lipids to antibody; parameters: species or system murine; details: 5 μg/ml 504B3, 0–50 nM ligand; for Kd: read-out: KD from FSA ± SD (95% CI); for Bmax (95% CI): one-site specific binding fit of the ΔRI signal
Protocol: The FSA configuration required refractive index (RI)-matched sample and reference solutions (Fig. 2). The binding affinity determinations were done in an end-point assay format. A ligand dilution series (100, 20, 4, 0.8, 0.16, 0.032, and 0 nM) was prepared in 0.01% BSA / 0.002% EtOH/Phosphate buffered saline (PBS; ThermoFisher Scientific, Waltham, MA, USA) from an intermediate stock of 200 nM LPs in 0.01% BSA / 0.002% EtOH/PBS. Lipids were prepared in fatty acid-free BSA solutions to approximate the biological conditions of LPs. Then, each LP dilution was combined with PBS-only to create the reference solution, or 10 μg/ml of the 504B3 antibody in PBS to create the corresponding binding sample solution (Fig. 2). Sample and reference solutions were kept at RT in a shaker for approximately 1-h to reach equilibrium and then analyzed using the CIR. The final concentrations were 5 μg/ml of antibody and 0–50 nM of ligand in a final buffer composition of 0.005% BSA / 0.001% EtOH/PBS. The details of the interferometer instrumentation have been described elsewhere. Briefly, it consists of a diode laser, two mirrors, one glass capillary, and a CCD camera. Droplet trains of sample-reference pairs were maintained at a constant flow rate in the capillary using a droplet generator (Mitos Dropix; Dolomite Microfluidics, (Royston, North Hertfordshire, UK)) and a syringe pump (Harvard Apparatus, Holliston, MA, USA). Together, the interferometer, a syringe pump (at a flow rate of 10 μL/min), and a droplet generator comprise the CIR. The RI change between the binding sample and reference was measured as a positional shift in backscattered interference fringes produced from the interaction between an expanded beam profile of the laser and a capillary filled with sample-reference solutions [24]. The shift of the backscattered fringe patterns, which is equivalent to molecular binding, was quantified using fast Fourier transform of selected fringes captured in a CCD array. The assay was measured sequentially, as reference, then sample for each concentration, as described previously. The concentration dependent signal was plotted using a non-linear regression, one-site specific binding (Y=Bmax*X/(KD + X) + D; where D is the offset value) isotherm fit in GraphPad Prism Version 8 to determine the equilibrium dissociation constants (KDs). […] The sample and reference solutions were prepared by mixing a ligand dilution series (0–100 nM) with an equivalent volume of the 504B3 solution (sample; 10 μg/ml dissolved in PBS, pH 7.4) or PBS only (reference) (Fig. 2).

[1] = 0.005% BSA / 0.001% EtOH/PBS, about 1 h at RT, one-site specific binding fit

SMILES: CCCCCCCC/C=C\CCCCCCCC(=O)OC[C@@H](O)COP(=O)(O)O [18:1 LPA, 1-oleoyl-LPA (18:1)]
- native equilibrium binding (KD) to LPA1 (LPA1): comparable binding
- Kd (anti-LPA antibody, 504B3; [1]): 3.7 ± 2.8 nM
- Bmax (95% CI) (anti-LPA antibody, 504B3): 0.17 (0.14 to 0.25)

SMILES: CCCCCCCCCCCCCCCC(=O)OC[C@@H](O)COP(=O)(O)O [16:0 LPA, 1-palmitoyl-LPA (16:0)]
- native equilibrium binding (KD) to LPA1 (LPA1): comparable binding
- KD from FSA ± SD (95% CI) (anti-LPA antibody, 504B3; [1]): weaker affinity
- Kd (anti-LPA antibody, 504B3; [1]): > 30 nM
- Bmax (95% CI) (anti-LPA antibody, 504B3): 0.39 (undetermined^a)

SMILES: CCCCCCCCCCCCC/C=C/[C@@H](O)[C@@H](N)COP(=O)(O)O [18:1 S1P, sphingosine 1-phosphate (d18:1)]
- specific binding signal (ΔRI) with 504B3 (anti-LPA antibody, 504B3): No specific binding signal
- specific binding signal (ΔRI) with 504B3 (anti-LPA antibody, 504B3; listed as S1P): no signal

SMILES: CCCCCCCC/C=C\CCCCCCCC(=O)OC[C@@H](O)COP(=O)([O-])OCC[N+](C)(C)C [18:1 LPC, 1-oleoyl-lysophosphatidylcholine]
- Kd (anti-LPA antibody, 504B3; [1]): ~8.5 nM and 8.5 nM
- Bmax (95% CI) (anti-LPA antibody, 504B3): 0.14 (0.12 to 0.16)
